Measurements reported in ChEMBL document CHEMBL4177673, “Imidazo[1,2-a]pyridin-6-yl-benzamide analogs as potent RAF inhibitors” (Bioorg Med Chem Lett, 2017).
pEC50, pIC50: −log10 of the molar value. Values after ≈ are worked out from the molar mass of the structure shown.

Key:
[1] = molecular target: T1, Serine/threonine-protein kinase B-raf (Homo sapiens, UniProt P15056, V600E); assay: Inhibition of recombinant C-terminal his6-tagged B-Raf (437 to 765 residues) V600E mutant (unknown origin) catalytic domain expressed in baculovirus infected Sf21 insect cells using biotinylated Mek substrate preincubated for 60 mins measured after 3 hrs by amplified luminescence proximity homogeneous assay
T1 sequence (P15056 2-766 V600E limits assumed): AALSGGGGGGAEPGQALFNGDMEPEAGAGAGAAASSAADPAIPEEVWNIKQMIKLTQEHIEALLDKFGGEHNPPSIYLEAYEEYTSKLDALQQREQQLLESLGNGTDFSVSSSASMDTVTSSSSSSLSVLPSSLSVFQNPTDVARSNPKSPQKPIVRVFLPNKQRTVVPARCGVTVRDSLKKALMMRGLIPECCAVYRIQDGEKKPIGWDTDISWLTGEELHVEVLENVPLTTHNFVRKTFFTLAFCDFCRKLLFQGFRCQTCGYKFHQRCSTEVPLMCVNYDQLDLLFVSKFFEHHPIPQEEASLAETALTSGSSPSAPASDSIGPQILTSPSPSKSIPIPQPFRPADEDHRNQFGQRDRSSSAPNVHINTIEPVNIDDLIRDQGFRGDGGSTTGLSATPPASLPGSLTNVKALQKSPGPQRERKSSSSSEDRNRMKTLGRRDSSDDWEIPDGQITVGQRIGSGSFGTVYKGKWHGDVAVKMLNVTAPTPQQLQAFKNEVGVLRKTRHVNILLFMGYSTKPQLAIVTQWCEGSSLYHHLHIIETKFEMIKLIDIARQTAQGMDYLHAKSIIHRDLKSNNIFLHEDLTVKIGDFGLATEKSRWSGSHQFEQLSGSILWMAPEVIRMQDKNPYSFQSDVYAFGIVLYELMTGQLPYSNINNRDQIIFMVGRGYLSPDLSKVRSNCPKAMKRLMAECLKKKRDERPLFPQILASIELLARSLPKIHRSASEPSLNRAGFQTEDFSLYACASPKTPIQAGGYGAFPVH

[2] = molecular target: T1, Serine/threonine-protein kinase B-raf; assay: Inhibition of B-Raf V600E mutant in human A375 cells assessed as reduction in ERK phosphorylation; type: cell-based
[3] = system: A-375; assay: Antiproliferative activity against human A375 cells; type: functional, cell-based
[4] = molecular target: MAP kinase p38 (Homo sapiens, UniProt O15264+Q15759+Q16539+P53778); assay: Inhibition of P38 (unknown origin); type: protein assay
[5] = organism: Homo sapiens; assay: Selectivity ratio of IC50 for P38 (unknown origin) to IC50 for recombinant C-terminal his6-tagged B-Raf (437 to 765 residues) V600E mutant (unknown origin) expressed in baculovirus infected Sf21 insect cells
[6] = molecular target: Vascular endothelial growth factor receptor 2 (Homo sapiens, UniProt P35968); assay: Inhibition of VEGFR2 (unknown origin)
Chain of Vascular endothelial growth factor receptor 2 (P35968 whole entry, the tested form may be a part): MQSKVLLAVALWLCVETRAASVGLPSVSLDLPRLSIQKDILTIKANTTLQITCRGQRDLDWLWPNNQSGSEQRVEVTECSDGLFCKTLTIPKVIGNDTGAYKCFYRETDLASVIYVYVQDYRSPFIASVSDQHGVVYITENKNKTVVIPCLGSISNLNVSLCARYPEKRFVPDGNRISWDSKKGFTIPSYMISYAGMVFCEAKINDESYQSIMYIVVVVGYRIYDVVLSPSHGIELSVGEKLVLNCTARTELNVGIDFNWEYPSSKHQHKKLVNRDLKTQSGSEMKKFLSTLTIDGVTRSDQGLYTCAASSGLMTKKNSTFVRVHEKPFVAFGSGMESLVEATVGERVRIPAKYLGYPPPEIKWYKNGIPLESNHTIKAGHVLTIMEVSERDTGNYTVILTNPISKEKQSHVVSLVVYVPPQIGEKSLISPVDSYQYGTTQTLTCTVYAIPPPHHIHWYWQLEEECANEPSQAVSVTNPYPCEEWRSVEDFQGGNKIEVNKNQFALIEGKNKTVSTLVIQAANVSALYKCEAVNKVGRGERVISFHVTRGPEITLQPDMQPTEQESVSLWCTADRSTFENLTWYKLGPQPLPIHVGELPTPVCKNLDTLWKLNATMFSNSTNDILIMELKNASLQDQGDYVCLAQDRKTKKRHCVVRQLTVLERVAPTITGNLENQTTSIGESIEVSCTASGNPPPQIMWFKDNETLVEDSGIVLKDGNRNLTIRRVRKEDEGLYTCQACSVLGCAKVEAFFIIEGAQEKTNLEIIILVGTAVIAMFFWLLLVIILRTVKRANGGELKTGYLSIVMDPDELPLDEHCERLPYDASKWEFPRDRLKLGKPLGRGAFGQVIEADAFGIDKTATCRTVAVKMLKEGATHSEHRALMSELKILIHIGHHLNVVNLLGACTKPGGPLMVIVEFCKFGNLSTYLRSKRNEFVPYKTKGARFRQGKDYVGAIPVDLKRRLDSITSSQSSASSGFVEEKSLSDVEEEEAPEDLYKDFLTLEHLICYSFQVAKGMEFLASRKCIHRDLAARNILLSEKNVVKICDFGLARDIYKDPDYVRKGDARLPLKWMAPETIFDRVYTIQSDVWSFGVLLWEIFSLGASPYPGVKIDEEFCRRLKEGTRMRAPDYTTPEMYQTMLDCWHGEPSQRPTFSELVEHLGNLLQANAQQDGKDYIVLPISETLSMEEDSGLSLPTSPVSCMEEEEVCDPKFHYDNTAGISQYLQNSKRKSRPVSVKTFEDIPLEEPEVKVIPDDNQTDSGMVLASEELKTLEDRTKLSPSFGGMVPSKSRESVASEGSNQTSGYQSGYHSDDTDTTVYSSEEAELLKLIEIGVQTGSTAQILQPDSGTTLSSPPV

[7] = organism: Homo sapiens; assay: Selectivity ratio of IC50 for VEGFR2 (unknown origin) to IC50 for recombinant C-terminal his6-tagged B-Raf (437 to 765 residues) V600E mutant (unknown origin) expressed in baculovirus infected Sf21 insect cells
[8] = Solubility of the compound in PBS at pH 7; type: physicochemical
[9] = molecular target: Platelet-derived growth factor receptor alpha (Homo sapiens, UniProt P16234); assay: Inhibition of PDGFRalpha (unknown origin)
[10] = molecular target: Mast/stem cell growth factor receptor Kit (Homo sapiens, UniProt P10721); assay: Inhibition of Kit (unknown origin)
Chain of Mast/stem cell growth factor receptor Kit (P10721 whole entry): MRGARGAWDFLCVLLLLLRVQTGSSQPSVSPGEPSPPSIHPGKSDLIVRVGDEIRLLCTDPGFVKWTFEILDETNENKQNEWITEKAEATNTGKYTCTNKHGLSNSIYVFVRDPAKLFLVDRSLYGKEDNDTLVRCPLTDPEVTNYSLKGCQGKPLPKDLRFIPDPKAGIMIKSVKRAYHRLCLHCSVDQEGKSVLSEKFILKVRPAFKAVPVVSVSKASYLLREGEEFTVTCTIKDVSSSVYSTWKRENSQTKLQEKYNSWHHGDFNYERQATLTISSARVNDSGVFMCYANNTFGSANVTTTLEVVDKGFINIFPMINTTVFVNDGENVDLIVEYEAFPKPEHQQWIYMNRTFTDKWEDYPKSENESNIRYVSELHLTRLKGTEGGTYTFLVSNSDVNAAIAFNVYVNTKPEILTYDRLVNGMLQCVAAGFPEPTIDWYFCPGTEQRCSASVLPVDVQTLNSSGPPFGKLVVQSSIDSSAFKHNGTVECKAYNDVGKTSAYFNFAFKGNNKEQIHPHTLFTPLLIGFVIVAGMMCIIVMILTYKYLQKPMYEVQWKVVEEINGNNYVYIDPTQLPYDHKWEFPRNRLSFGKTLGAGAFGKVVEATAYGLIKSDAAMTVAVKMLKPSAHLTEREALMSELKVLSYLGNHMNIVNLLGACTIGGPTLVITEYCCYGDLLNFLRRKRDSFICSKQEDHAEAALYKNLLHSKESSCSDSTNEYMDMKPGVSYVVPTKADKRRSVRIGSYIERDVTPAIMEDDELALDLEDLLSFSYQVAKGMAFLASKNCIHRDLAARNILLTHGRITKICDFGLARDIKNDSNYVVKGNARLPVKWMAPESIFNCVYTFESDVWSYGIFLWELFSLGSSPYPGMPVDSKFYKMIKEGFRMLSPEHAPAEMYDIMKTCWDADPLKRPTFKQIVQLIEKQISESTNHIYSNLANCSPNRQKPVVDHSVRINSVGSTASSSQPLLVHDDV

[11] = molecular target: Ephrin type-A receptor 4 (Homo sapiens, UniProt P54764); assay: Inhibition of EphA4 (unknown origin)
Chain of Ephrin type-A receptor 4 (P54764 whole entry): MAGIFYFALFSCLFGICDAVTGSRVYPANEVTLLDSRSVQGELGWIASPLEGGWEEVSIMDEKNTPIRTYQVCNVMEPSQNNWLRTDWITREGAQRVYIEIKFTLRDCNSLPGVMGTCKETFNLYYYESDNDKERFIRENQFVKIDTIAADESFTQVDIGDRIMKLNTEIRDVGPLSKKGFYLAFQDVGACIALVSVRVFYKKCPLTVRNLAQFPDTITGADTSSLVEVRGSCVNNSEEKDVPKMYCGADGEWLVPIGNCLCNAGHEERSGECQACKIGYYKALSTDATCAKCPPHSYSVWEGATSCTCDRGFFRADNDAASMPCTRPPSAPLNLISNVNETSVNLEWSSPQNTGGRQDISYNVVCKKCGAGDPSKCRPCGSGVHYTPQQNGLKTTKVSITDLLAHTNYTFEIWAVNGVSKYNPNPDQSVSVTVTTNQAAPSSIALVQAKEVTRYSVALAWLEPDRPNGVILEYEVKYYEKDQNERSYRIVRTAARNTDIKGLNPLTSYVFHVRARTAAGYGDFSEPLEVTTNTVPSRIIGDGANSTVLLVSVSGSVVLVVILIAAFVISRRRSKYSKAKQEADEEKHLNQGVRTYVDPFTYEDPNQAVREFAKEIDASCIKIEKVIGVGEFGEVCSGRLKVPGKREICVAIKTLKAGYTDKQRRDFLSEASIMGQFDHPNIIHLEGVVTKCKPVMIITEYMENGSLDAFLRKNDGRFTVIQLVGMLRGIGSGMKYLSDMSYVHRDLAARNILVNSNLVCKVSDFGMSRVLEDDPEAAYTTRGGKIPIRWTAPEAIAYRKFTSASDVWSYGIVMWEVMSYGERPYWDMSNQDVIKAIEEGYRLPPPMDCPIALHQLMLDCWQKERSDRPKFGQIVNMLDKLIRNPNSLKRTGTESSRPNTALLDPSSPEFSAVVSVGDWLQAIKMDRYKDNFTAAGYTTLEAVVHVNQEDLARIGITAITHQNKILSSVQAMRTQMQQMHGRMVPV

[12] = molecular target: T2, Ephrin type-B receptor 4 (Homo sapiens, UniProt P54760); assay: Inhibition of EphB4 (unknown origin)
T2 sequence (P54760 whole entry): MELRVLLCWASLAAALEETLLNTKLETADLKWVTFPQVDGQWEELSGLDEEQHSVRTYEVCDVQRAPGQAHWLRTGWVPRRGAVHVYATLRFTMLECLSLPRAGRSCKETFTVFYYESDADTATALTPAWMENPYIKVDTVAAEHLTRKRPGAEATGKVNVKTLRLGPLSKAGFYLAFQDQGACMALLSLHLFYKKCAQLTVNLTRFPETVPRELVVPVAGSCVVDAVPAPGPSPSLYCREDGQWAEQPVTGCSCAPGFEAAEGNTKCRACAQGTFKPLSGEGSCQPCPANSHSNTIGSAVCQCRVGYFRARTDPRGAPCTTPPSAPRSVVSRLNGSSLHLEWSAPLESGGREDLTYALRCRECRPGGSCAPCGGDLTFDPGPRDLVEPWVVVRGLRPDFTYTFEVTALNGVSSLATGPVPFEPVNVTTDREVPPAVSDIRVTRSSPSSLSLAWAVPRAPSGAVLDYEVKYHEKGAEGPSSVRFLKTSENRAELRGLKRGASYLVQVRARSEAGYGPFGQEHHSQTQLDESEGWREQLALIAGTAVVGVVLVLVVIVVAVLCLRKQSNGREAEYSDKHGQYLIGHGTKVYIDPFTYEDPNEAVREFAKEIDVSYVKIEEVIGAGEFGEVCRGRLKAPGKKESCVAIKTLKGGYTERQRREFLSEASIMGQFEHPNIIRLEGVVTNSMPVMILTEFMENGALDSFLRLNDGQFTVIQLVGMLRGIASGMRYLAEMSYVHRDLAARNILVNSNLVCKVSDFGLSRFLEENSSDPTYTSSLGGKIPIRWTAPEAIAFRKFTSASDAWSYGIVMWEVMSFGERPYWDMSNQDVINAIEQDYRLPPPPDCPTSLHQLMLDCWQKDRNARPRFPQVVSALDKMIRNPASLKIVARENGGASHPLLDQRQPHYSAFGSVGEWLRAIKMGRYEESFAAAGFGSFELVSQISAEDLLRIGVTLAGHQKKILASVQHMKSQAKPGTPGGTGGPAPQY

[13] = molecular target: Tyrosine-protein kinase Lyn (Homo sapiens, UniProt P07948); assay: Inhibition of Lyn (unknown origin)
Chain of Tyrosine-protein kinase Lyn (P07948 whole entry): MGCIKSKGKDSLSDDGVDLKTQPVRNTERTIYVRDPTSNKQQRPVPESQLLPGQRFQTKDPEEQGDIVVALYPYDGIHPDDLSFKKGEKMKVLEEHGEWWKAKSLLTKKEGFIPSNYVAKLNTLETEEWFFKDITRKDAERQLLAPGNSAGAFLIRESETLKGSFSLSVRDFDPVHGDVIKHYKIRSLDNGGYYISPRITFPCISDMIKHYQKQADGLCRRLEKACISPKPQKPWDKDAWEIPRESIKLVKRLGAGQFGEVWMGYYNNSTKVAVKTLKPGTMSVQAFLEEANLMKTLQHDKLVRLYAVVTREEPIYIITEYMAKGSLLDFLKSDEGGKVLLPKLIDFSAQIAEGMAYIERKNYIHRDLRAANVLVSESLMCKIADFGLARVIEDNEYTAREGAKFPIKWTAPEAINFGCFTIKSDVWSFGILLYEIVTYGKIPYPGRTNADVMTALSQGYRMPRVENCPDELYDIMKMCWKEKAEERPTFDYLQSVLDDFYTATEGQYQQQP

[14] = Clearance in mouse at 20 mg/kg, po administered as single dose; type: ADME, organism-based; settings: in vivo
[15] = system: Mus musculus; assay: Volume of distribution in mouse at 20 mg/kg, po administered as single dose; type: ADME, organism-based; settings: in vivo
[16] = Half life in mouse at 20 mg/kg, po administered as single dose; type: ADME, organism-based; settings: in vivo
[17] = Oral bioavailability in mouse at 20 mg/kg administered as single dose; type: ADME, organism-based; settings: in vivo

Row | Structure (SMILES) | pIC50 [1] | pEC50 [2] | pEC50 [3] | IC50 [4] | Ratio IC50 [5] | pIC50 [6] | Ratio IC50 [7] | solubility [8] | pIC50 [9] | pIC50 [10] | pIC50 [11] | pIC50 [12] | pIC50 [13] | CL/F [14] | Vd [15] | half-life [16] | bioavailability [17]
1 | CC(=O)Nc1cn2cc(-c3cc(NC(=O)c4ccc(CN5CCN(C)CC5)c(C(F)(F)F)c4)ccc3C)ccc2n1 | 8.30 | 6.89 | 6.37 | < 0.011 µM | < 2 | 6.96 | 20 | 4.6 µM (≈ 2.6 µg/mL) |  |  |  |  |  |  |  |  | 
2 | CC(=O)Nc1cn2cc(-c3cc(NC(=O)c4ccccc4)ccc3C)ccc2n1 | 7.21 | 6.27 | 7.00 | 1.6 µM | 3 to 20 | 4.96 | 18 |  |  |  |  |  |  |  |  |  | 
3 | CC(=O)Nc1cn2cc(-c3cc(NC(=O)c4cccc(C(F)(F)F)c4)ccc3C)ccc2n1 | 9.70 | 6.64 | 7.07 | 0.22 µM | 1100 | 6.17 to 6.49 | 1600 | < 0.4 µM | 8.10 | 7.28 | 7.13 | 6.82 | 6.77 | 18 mL/min/kg | 2150 mL/kg | 147 min | 73%
4 | CC(=O)Nc1cn2cc(-c3cc(NC(=O)c4cccc(C(C)(C)C)c4)ccc3C)ccc2n1 | 9.52 | 7.60 | 7.24 | 0.002 µM | 7 | 7.36 | 146 |  |  |  |  |  |  |  |  |  | 
5 | CC(=O)Nc1cn2cc(-c3cc(NC(=O)c4cccc(C(F)(F)F)n4)ccc3C)ccc2n1 | 8.22 | < 5.00 | 6.89 | > 25 µM | > 4000 |  |  |  |  |  |  |  |  |  |  |  | 
6 | CC(=O)Nc1cn2cc(-c3cc(NC(=O)c4cc(N5CCN(C)C[C@@H]5C)cc(C(F)(F)F)c4)ccc3C)ccc2n1 | 8.52 | 6.62 | 6.47 | 0.002 µM | 0.7 |  |  | 122 µM (≈ 68.9 µg/mL) |  |  |  |  |  |  |  |  | 
7 | CC(=O)Nc1cn2cc(-c3cc(NC(=O)c4cc(C(F)(F)F)ccn4)ccc3C)ccc2n1 | 9.05 | 6.11 | 6.55 | 0.66 µM | 700 | 5.70 | 2000 |  |  |  |  |  |  |  |  |  | 
8 | CC(=O)Nc1cn2cc(-c3cc(NC(=O)c4cccc(Cl)c4)ccc3C)ccc2n1 | 9.52 | 6.32 | 7.15 | 3.1 µM | 10000 | 5.57 | 9000 |  |  |  |  |  |  |  |  |  | 
